Legend:
[1] = tested on: cotton aphid (Aphis gossypii); assay: Aphis gossypii test (cotton leaves dipped into the preparation of active compound); assay type: in vivo; conditions: individual active compound, 1.6 ppm, cotton leaves (Gossypium hirsutum)
Description: (§1) The expected action for a given combination of two active compounds can be calculated as follows, using the formula of S. R. Colby, Weeds 15 (1967), 20-22):
(§2) • X is the kill rate, expressed as a percentage of the untreated control, when employing active compound A at an application rate of m g/ha or in a concentration of m ppm, • Y is the kilt rate, expressed as a percentage of the untreated control, when employing active compound B at an application rate of n g/ha or in a concentration of n ppm and • E is the kill rate, expressed as a percentage of the untreated control, when employing active compounds A and B at application rates of m and n g/ha or in a concentration of m and n ppm, then
(§3) If the actual insecticidal kill rate exceeds the calculated value, the action of the combination is superadditive, i.e. a synergistic effect is present. In this case, the actually observed kill rate must exceed the value calculated using the above formula for the expected kill rate (E).
(§4) After the desired period of time, the kill rate in % is determined. 100% means that all the animals have been killed; 0% means that none of the animals has been killed.
(§5) Solvent: 3 parts by weight of dimethylformamide
(§6) Emulsifier: 1 part by weight of alkylaryl polyglycol ether […]
After the desired period of time, the kill in % is determined. […] The kill rates that are determined are calculated using Colby formula.

[2] = tested on: peach aphid (Myzus persicae); assay: Myzus test (cabbage leaves dipped into the preparation of active compound); assay type: in vivo; conditions: individual active compound, 1.6 ppm, cabbage leaves (Brassica oleracea)
Description: as §1, §2, §3, §4, §5, §6
After the desired period of time, the kill in % is determined. […] The kill rates determined are calculated using Colby's formula.

## CC1(C)C(C=C(Cl)Cl)C1C(=O)OC(C#N)c1ccc(F)c(Oc2ccccc2)c1 (centres unmarked) [cyfluthrin, Cyfluthrin]
[1]
  Kill rates in % after 6d: 75%
[2]
  Kill rates in % after 1d: 25%
